Test results taken from article PMC3933250 (Annals of Oncology, 2014).

Tests used:
R/M-SCCHN patients = conditions: ≤2000 mg cilengitide plus PFE, phase I part; cited from earlier work
[1] = Cilengitide pharmacokinetic profile in plasma during cycle 1; assay type: in vivo, human; conditions: PFE + CIL1W and PFE + CIL2W groups

Which “Dose-limiting or unexpected toxicities” value (R/M-SCCHN patients) does the source give for `CC(C)[C@H]1C(=O)N[C@@H](CCCN=C(N)N)C(=O)NCC(=O)N[C@@H](CC(=O)O)C(=O)N[C@H](Cc2ccccc2)C(=O)N1C` [cilengitide, Cilengitide] here?
Its value is “no dose-limiting or unexpected toxicities”.

What about the “Influence of the different cilengitide dosing on cetuximab exposure” value [1] of the same molecule?
Its value is “no clinically relevant influence”.
